How the values were obtained:
Experiment in all cases: Test B pre-/postemergence plant response
Type in all cases: in vivo
[1] = test system: large crabgrass (Digitaria sanguinalis)
Method in brief: (§1)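 Pre-em in loam/sand; post-em at 1–4 leaf (2–18 cm) in peat mix. Solvent + surfactant formulation. Greenhouse 13–15 d; visual % control vs untreated, 0–100.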

kochia (Kochia scoparia) = test system: kochia (Kochia scoparia)
Method in brief: as §1

[2] = test system: Surinam grass (Brachiaria decumbens)
Method in brief: as §1

corn (Zea mays) = test system: corn (Zea mays)
Method in brief: as §1

soybean (Glycine max) = test system: soybean (Glycine max)
Method in brief: as §1

[3] = test system: goosegrass (Eleusine indica)
Method in brief: as §1

[4] = test system: lambsquarters (Chenopodium album)
Method in brief: as §1

[5] = test system: downy bromegrass (Bromus tectorum)
Method in brief: as §1

[6] = test system: yellow nutsedge (Cyperus esculentus)
Method in brief: as §1

[7] = test system: velvetleaf (Abutilon theophrasti)
Method in brief: as §1

[8] = test system: pigweed (Amaranthus retroflexus)
Method in brief: as §1

[9] = test system: morningglory (Ipomoea coccinea)
Method in brief: as §1

[10] = test system: johnsongrass (Sorghum halepense)
Method in brief: as §1

[11] = test system: blackgrass (Alopecurus myosuroides)
Method in brief: as §1

wild oat (Avena fatua) = test system: wild oat (Avena fatua)
Method in brief: as §1

[12] = test system: woolly cupgrass (Eriochloa villosa)
Method in brief: as §1

[13] = test system: green foxtail (Setaria viridis)
Method in brief: as §1

[14] = Postemergence, 31 g ai/ha, 0 to 100 scale (0 no effect, 100 complete control)
[15] = Postemergence, 125 g ai/ha, scale 0 to 100 (0 no effect, 100 complete control)
[16] = Postemergence, 250 g ai/ha, scale 0 to 100 (0 no effect, 100 complete control), 13 to 15 days
[17] = Postemergence, 62 g ai/ha, scale 0 to 100 (0 no effect, 100 complete control)
[18] = Preemergence, 31 g ai/ha, scale 0 to 100 (0 no effect, 100 complete control)
[19] = Preemergence, 62 g ai/ha, scale 0 to 100, 0 no effect, 100 complete control
[20] = Preemergence, 125 g ai/ha, scale 0 to 100, 0 no effect, 100 complete control
[21] = Preemergence, 250 g ai/ha, 0 to 100 scale

In the case of CCCCn1c(C2CC2)ncc(C(=O)C2=C(O)CCCC2=O)c1=O [Compound 193], the “Plant response rating, Crabgrass, Large” value [1, 14] is reported as 75, the “Plant response rating, Crabgrass, Large” value [1, 15] is reported as 98 and the “Plant response rating, Crabgrass, Large” value [1, 16] is reported as 100. The “Plant response rating, Crabgrass, Large” value [1, 17] was 90, the “Plant response rating, Crabgrass, Large” value [1, 18] was 100 and the “Plant response rating, Crabgrass, Large” value [1, 19] was 100. For the same compound, the “Plant response rating, Crabgrass, Large” value [1, 20] was 100, the “Crabgrass, Large plant response rating” value [1, 21] was 100 and the “Plant response rating, Kochia” value (kochia (Kochia scoparia); [14]) was 20. For the same compound, the “Plant response rating, Kochia” value (kochia (Kochia scoparia); [15]) was 100, the “Plant response rating, Kochia” value (kochia (Kochia scoparia); [16]) was 100 and the “Plant response rating, Kochia” value (kochia (Kochia scoparia); [17]) was 80. For the same compound, the “Plant response rating, Kochia” value (kochia (Kochia scoparia); [18]) was 20, the “Plant response rating, Kochia” value (kochia (Kochia scoparia); [19]) was 70 and the “Plant response rating, Kochia” value (kochia (Kochia scoparia); [20]) was 80. For the same compound, the “Kochia plant response rating” value (kochia (Kochia scoparia); [21]) was 90, the “Plant response rating, Surinam Grass” value [2, 14] was 65 and the “Plant response rating, Surinam Grass” value [2, 16] was 95. The “Plant response rating, Surinam Grass” value [2, 17] was 65, the “Plant response rating, Surinam Grass” value [2, 18] was 0 and the “Plant response rating, Surinam Grass” value [2, 19] was 15. The “Plant response rating, Surinam Grass” value [2, 20] was 30, the “Surinam Grass plant response rating” value [2, 21] was 45 and the “Plant response rating, Corn” value (corn (Zea mays); [14]) was 0. The “Plant response rating, Corn” value (corn (Zea mays); [15]) was 40, the “Plant response rating, Corn” value (corn (Zea mays); [16]) was 60 and the “Plant response rating, Corn” value (corn (Zea mays); [17]) was 15. The “Plant response rating, Corn” value (corn (Zea mays); [18]) was 0, the “Plant response rating, Corn” value (corn (Zea mays); [19]) was 0 and the “Plant response rating, Corn” value (corn (Zea mays); [20]) was 5. The “Corn plant response rating” value (corn (Zea mays); [21]) was 5, the “Plant response rating, Soybean” value (soybean (Glycine max); [14]) was 80 and the “Plant response rating, Soybean” value (soybean (Glycine max); [16]) was 100. The “Plant response rating, Soybean” value (soybean (Glycine max); [17]) was 98, the “Plant response rating, Soybean” value (soybean (Glycine max); [18]) was 40 and the “Plant response rating, Soybean” value (soybean (Glycine max); [19]) was 60. The “Plant response rating, Soybean” value (soybean (Glycine max); [20]) was 60, the “Soybean plant response rating” value (soybean (Glycine max); [21]) was 80 and the “Plant response rating, Goosegrass” value [3, 14] was 85. The “Plant response rating, Goosegrass” value [3, 15] was 98, the “Plant response rating, Goosegrass” value [3, 16] was 100 and the “Plant response rating, Goosegrass” value [3, 17] was 95. For the same compound, the “Plant response rating, Goosegrass” value [3, 18] was 98, the “Plant response rating, Goosegrass” value [3, 19] was 100 and the “Plant response rating, Goosegrass” value [3, 20] was 100. For the same compound, the “Goosegrass plant response rating” value [3, 21] was 100, the “Plant response rating, Lambsquarters” value [4, 14] was 98 and the “Plant response rating, Lambsquarters” value [4, 15] was 98. The “Plant response rating, Lambsquarters” value [4, 16] was 100, the “Plant response rating, Lambsquarters” value [4, 17] was 98 and the “Plant response rating, Lambsquarters” value [4, 18] was 100. The “Plant response rating, Lambsquarters” value [4, 19] was 100, the “Plant response rating, Lambsquarters” value [4, 20] was 100 and the “Lambsquarters plant response rating” value [4, 21] was 100. The “Plant response rating, Bromegrass, Downy” value [5, 14] was 10, the “Plant response rating, Bromegrass, Downy” value [5, 15] was 40 and the “Plant response rating, Bromegrass, Downy” value [5, 16] was 85. The “Plant response rating, Bromegrass, Downy” value [5, 17] was 30, the “Plant response rating, Bromegrass, Downy” value [5, 18] was 0 and the “Plant response rating, Bromegrass, Downy” value [5, 19] was 5. For the same compound, the “Plant response rating, Bromegrass, Downy” value [5, 20] was 5, the “Bromegrass, Downy plant response rating” value [5, 21] was 50 and the “Plant response rating, Nutsedge, Yellow” value [6, 14] was 60. For the same compound, the “Plant response rating, Nutsedge, Yellow” value [6, 15] was 75, the “Plant response rating, Nutsedge, Yellow” value [6, 16] was 75 and the “Plant response rating, Nutsedge, Yellow” value [6, 17] was 65. For the same compound, the “Plant response rating, Nutsedge, Yellow” value [6, 18] was 10, the “Plant response rating, Nutsedge, Yellow” value [6, 19] was 65 and the “Plant response rating, Nutsedge, Yellow” value [6, 20] was 70. The “Nutsedge, Yellow plant response rating” value [6, 21] was 90, the “Plant response rating, Velvetleaf” value [7, 14] was 90 and the “Plant response rating, Velvetleaf” value [7, 16] was 100. For the same compound, the “Plant response rating, Velvetleaf” value [7, 17] was 100, the “Plant response rating, Velvetleaf” value [7, 18] was 85 and the “Plant response rating, Velvetleaf” value [7, 19] was 100. The “Plant response rating, Velvetleaf” value [7, 20] was 100, the “Velvetleaf plant response rating” value [7, 21] was 100 and the “Plant response rating, Pigweed” value [8, 14] was 90. The “Plant response rating, Pigweed” value [8, 16] was 100, the “Plant response rating, Pigweed” value [8, 17] was 95 and the “Plant response rating, Pigweed” value [8, 18] was 98. For the same compound, the “Plant response rating, Pigweed” value [8, 19] was 100, the “Plant response rating, Pigweed” value [8, 20] was 100 and the “Pigweed plant response rating” value [8, 21] was 100. The “Plant response rating, Morningglory” value [9, 14] was 40, the “Plant response rating, Morningglory” value [9, 15] was 65 and the “Plant response rating, Morningglory” value [9, 16] was 90. The “Plant response rating, Morningglory” value [9, 17] was 60, the “Plant response rating, Morningglory” value [9, 18] was 75 and the “Plant response rating, Morningglory” value [9, 19] was 90. The “Plant response rating, Morningglory” value [9, 20] was 95, the “Morningglory plant response rating” value [9, 21] was 95 and the “Plant response rating, Johnsongrass” value [10, 14] was 50. The “Plant response rating, Johnsongrass” value [10, 15] was 70, the “Plant response rating, Johnsongrass” value [10, 16] was 80 and the “Plant response rating, Johnsongrass” value [10, 17] was 65. For the same compound, the “Plant response rating, Johnsongrass” value [10, 18] was 0, the “Plant response rating, Johnsongrass” value [10, 19] was 0 and the “Plant response rating, Johnsongrass” value [10, 20] was 15. For the same compound, the “Johnsongrass plant response rating” value [10, 21] was 60, the “Plant response rating, Blackgrass” value [11, 14] was 10 and the “Plant response rating, Blackgrass” value [11, 15] was 40. For the same compound, the “Plant response rating, Blackgrass” value [11, 16] was 60, the “Plant response rating, Blackgrass” value [11, 17] was 15 and the “Plant response rating, Blackgrass” value [11, 18] was 0. For the same compound, the “Plant response rating, Blackgrass” value [11, 19] was 0, the “Plant response rating, Blackgrass” value [11, 20] was 30 and the “Blackgrass plant response rating” value [11, 21] was 70. For the same compound, the “Plant response rating, Oat, Wild” value (wild oat (Avena fatua); [14]) was 0, the “Plant response rating, Oat, Wild” value (wild oat (Avena fatua); [16]) was 75 and the “Plant response rating, Oat, Wild” value (wild oat (Avena fatua); [17]) was 50. The “Plant response rating, Oat, Wild” value (wild oat (Avena fatua); [18]) was 5, the “Plant response rating, Oat, Wild” value (wild oat (Avena fatua); [19]) was 5 and the “Plant response rating, Oat, Wild” value (wild oat (Avena fatua); [20]) was 30. The “Oat, Wild plant response rating” value (wild oat (Avena fatua); [21]) was 60, the “Plant response rating, Cupgrass, Woolly” value [12, 14] was 75 and the “Plant response rating, Cupgrass, Woolly” value [12, 15] was 95. The “Plant response rating, Cupgrass, Woolly” value [12, 16] was 98, the “Plant response rating, Cupgrass, Woolly” value [12, 17] was 85 and the “Plant response rating, Cupgrass, Woolly” value [12, 18] was 10. For the same compound, the “Plant response rating, Cupgrass, Woolly” value [12, 19] was 70, the “Plant response rating, Cupgrass, Woolly” value [12, 20] was 80 and the “Cupgrass, Woolly plant response rating” value [12, 21] was 90. The “Plant response rating, Foxtail, Green” value [13, 14] was 40, the “Plant response rating, Foxtail, Green” value [13, 15] was 60 and the “Plant response rating, Foxtail, Green” value [13, 16] was 80. The “Plant response rating, Foxtail, Green” value [13, 17] was 50, the “Plant response rating, Foxtail, Green” value [13, 18] was 5 and the “Plant response rating, Foxtail, Green” value [13, 19] was 50. For the same compound, the “Plant response rating, Foxtail, Green” value [13, 20] was 50 and the “Foxtail, Green plant response rating” value [13, 21] was 98.

— patent US8952024B2, “Herbicidal pyrimidone derivatives” (E I du Pont de Nemours and Company, priority 2009, dated 2015)
